Results published in patent publication US20200045954A1, “NOVEL COMPOSITION FOR ORGAN PRESERVATION” (priority 2018, published 2020).
Non-standard residues stand in square brackets, D forms with d. No end group written: not given here.

Key:
[1] = tested on: isolated perfused rat hearts; test: Cardiac function of isolated perfused rat hearts (modified Langendorff) subjected to global I(30 min)/R(45 min); settings: for blocking of the cardio-protective effects of tri-peptide: opioid antagonist 5 μM given with tri-peptide 50 μM
[2] = tested on: isolated perfused rat hearts; test: Infarct size by TTC staining of isolated perfused rat hearts after I(30 min)/R(45 min)
[3] = Ventilator induced diaphragmatic dysfunction
[4] = compared to untreated control I/R hearts, tri-peptide 50 μM
[5] = final value, 45 min reperfusion
[6] = initial (baseline) value, mean ± S.E.M.

Molecule	post-reperfused cardiac function [1, 4]	Final +dP/dtmax [1, 5] [mmHg/s]	Final Coronary How [1, 5] [mL/min]	Final Heart Rate [1, 5] [BPM]	Final LVEDP [1, 5] [mmHg]	Final LVESP [1, 5] [mmHg]	Final −dP/dtmin [1, 5] [mmHg/s]	Final LVDP ([1]; final value, 45 min reperfusion, LVDP=LVESP−LVEDP) [mmHg]	Initial +dP/dtmax ([1]; initial (baseline) value) [mmHg/s]	Initial Coronary Flow ([1]; initial (baseline) value) [mL/min]	Initial Heart Rate ([1]; initial (baseline) value) [BPM]	Initial LVDP ([1]; initial (baseline) value, LVDP=LVESP−LVEDP) [mmHg]	Initial LVEDP [1, 6] [mmHg]	Initial LVESP [1, 6] [mmHg]	infarct size ([2]; TTC staining after I(30 min)/R(45 min)) [%]	infarct size [2, 4]	ventilator induced diaphragmatic dysfunction [3]	blocking of the cardio-protective effects of tri-peptide [1]
Phe-[dR]-Phe-NH2 [tri-peptide]	significantly restored	1126.8 ± 177.2	9.6 ± 1.5	276.3 ± 12.6	50.1 ± 7.4	105.6 ± 6.1	965.5 ± 112.1	55.5 ± 6.0	2376.7 ± 75.1	17.7 ± 0.9	287.8 ± 8.1	94.2 ± 2.7	6.7 ± 0.8	100.9 ± 3.1	26 ± 1	reduced infarct size	attenuate	
Oc1ccc2c3c1O[C@H]1c4[nH]c5ccccc5c4C[C@@]4(O)[C@@H](C2)N(CC2CC2)CC[C@]314 [NALD, naltrindole, reference compound]																		not
Oc1ccc2c3c1O[C@H]1c4[nH]c5c(c4C[C@@]4(O)[C@@H](C2)N(CC2CC2)CC[C@]314)C[C@@]1(O)[C@H]2Cc3ccc(O)c4c3[C@@]1(CCN2CC1CC1)[C@H]5O4 [BNI, nor-Binaltorphimine, reference compound]																		blocked
